We go through 1 compound from patent US11186543B2, “Crystalline form of 3-((L-valyl)amino))-3,3-dideuterium-1-propanesulfonic acid, preparation method and uses thereof” (RISEN (SUZHOU) PHARMA TECH CO., LTD., priority 2018, dated 2021).

Common to all, as to type: physicochemical
Series [1] in a line: Dynamic Vapor Sorption (DVS) analysis. As to conditions: from 0% RH to 80% RH, 25° C. How it is done:
The dynamic vapor sorption (DVS) instrument involved herein is Q5000TGA from TA Instruments; detection conditions: a platinum crucible, a protective atmosphere of nitrogen, a gas flow rate of 10 mL/min; and the following detection method: [table] 5. Dynamic Vapor Sorption (DVS) Analysis of Said Crystalline Form A The determination was carried out using the aforementioned instruments, determination methods, operating conditions, and parameters.

Series [2] can be described thus: Thermogravimetric Analysis (TGA). The procedure:
The thermogravimetric analyzer (TGA) involved herein is Q500TGA from TA Instruments; detection conditions: a platinum crucible, a protective atmosphere of nitrogen, a gas flow rate of 40 mL/min; and the following detection method: a Hi-Res sensitivity of 3.0, ramp 10.00° C./min, res 5.0 to 150.00° C., and ramp 10.00° C./min to 350° C. 4. Thermogravimetric Analysis (TGA) of Said Crystalline Form A The determination was carried out using the aforementioned instruments, determination methods, operating conditions, and parameters.

A short description of series [3]: Stability test of Crystalline Form A (XRD and DSC, Day 0 / Day 10). As to conditions: for change of crystalline form (XRD test): within 10 days. The procedure: Sample and experimental preparation: the Crystalline Form A as prepared in Example 2 was taken as a sample; a proper amount of the sample was weighted and placed on a watch glass to form a thin layer of about 3˜5 mm in thickness.
Experimental conditions: conventional (sealed and kept in darkness at 25° C.), long-term (uncovered and kept in darkness with −60% RH at 25° C.), and accelerated (uncovered and kept in darkness with −75% RH at 40° C.) conditions.
Detection time: Day 0, Day 10.
Detected items: crystalline forms (XRD test), and melting points (DSC test).

For the compound `[2H]C([2H])(CCS(=O)(=O)O)NC(=O)[C@@H](N)C(C)C` [Crystalline Form A, 3-((L-valyl)amino)-3,3-dideuterium-1-propanesulfonic acid], the “hygroscopicity class (DVS determination criteria)” value in series [1] was “slightly hygroscopic”. The “weight change (DVS isotherm)” value in series [1] is reported as “about 0.3 wt %”. Moreover, the “weight loss (TGA)” value in series [2] (before 120° C.) is reported as “about 0.9 wt %”. In addition, in series [2] (ramp 10° C./min, nitrogen), the “decomposition temperature (TGA)” value was “about 326 °C”. For the same compound, in series [3], the “variation of melting point (DSC test)” value was “±1 °C”. The “change of crystalline form (XRD test)” value in series [3] (accelerated: uncovered, kept in darkness with −75% RH at 40° C.) is “no change was detected”; in series [3] (conventional: sealed, kept in darkness at 25° C.) it was “no change was detected”; in series [3] (long-term: uncovered, kept in darkness with −60% RH at 25° C.) it was “no change was detected”.
